The data set can be described thus: Caco2 Permeability Assay. As to conditions: human. The data set is classed as in vitro ADME. On the procedure: Preparation of Caco-2 Cells: 50 μL and 25 mL of cell culture medium are added to each well of a Transwell® insert and reservoir, respectively. Then, the HTS Transwell® plates are incubated at 37° C., 5% CO2 for 1 hour before cell seeding. Caco-2 cell cells are diluted to 6.86×10^5 cells/mL with culture medium, and 50 μL of cell suspension are dispensed into the filter well of the 96-well HTS Transwell® plate. Cells are cultivated for 14-18 days in a cell culture incubator at 37° C., 5% CO2, 95% relative humidity. Cell culture medium is replaced every other day, beginning no later than 24 hours after initial plating.
Preparation of Stock Solutions: 10 mM stock solutions of test compounds are prepared in DMSO. The stock solutions of positive controls are prepared in DMSO at the concentration of 10 mM. Digoxin and propranolol are used as control compounds in this assay.
Assessment of Cell Monolayer Integrity: Medium is removed from the reservoir and each Transwell® insert and is replaced with prewarmed fresh culture medium. Transepithelial electrical resistance (TEER) across the monolayer is measured using Millicell Epithelial Volt-Ohm measuring system (Millipore, USA). The Plate is returned to the incubator once the measurement is done. The TEER value is calculated according to the following equation: TEER measurement (ohms)×Area of membrane (cm^2)=TEER value (ohm⋅cm^2). A TEER value greater than 230 ohm⋅cm^2 indicates a well-qualified Caco-2 monolayer.
Assay Procedure: The Caco-2 plate is removed from the incubator and washed twice with pre-warmed HBSS (10 mM HEPES, pH 7.4), and then incubated at 37° C. for 30 minutes. The stock solutions of control compounds are diluted in DMSO to get 1 mM solutions and then diluted with HBSS (10 mM HEPES, pH 7.4) to get 5 μM working solutions. The stock solutions of the test compounds are diluted in DMSO to get 1 mM solutions and then diluted with HBSS (10 mM HEPES and 4% BSA, pH 7.4) to get 5 μM working solutions. The final concentration of DMSO in the incubation system is 0.5%. To determine the rate of drug transport in the apical to basolateral direction. 75 μL of 5 μM working solutions of test compounds are added to the Transwell® insert (apical compartment) and the wells in the receiver plate (basolateral compartment) are filled with 235 μL of HBSS (10 mM HEPES and 4% BSA, pH 7.4). To determine the rate of drug transport in the basolateral to apical direction, 235 μL of 5 μM working solutions of test compounds are added to the receiver plate wells (basolateral compartment) and then the Transwell® inserts (apical compartment) are filled with 75 μL of HBSS (10 mM HEPES and 4% BSA, pH 7.4). Time 0 samples are prepared by transferring 50 μL of 5 μM working solution to wells of the 96-deepwell plate, followed by the addition of 200 μL cold methanol containing appropriate internal standards (IS). The plates are incubated at 37° C. for 2 hours. At the end of the incubation, 50 μL samples from donor sides (apical compartment for Ap→*Bl flux, and basolateral compartment for Bl→Ap) and receiver sides (basolateral compartment for Ap→Bl flux, and apical compartment for Bl→Ap) are transferred to wells of a new 96-well plate, followed by the addition of 4 volume of cold acetonitrile or methanol containing appropriate internal standards (IS). Samples are vortexed for 5 minutes and then centrifuged at 3,220 g for 40 minutes. An aliquot of 100 μL of the supernatant is mixed with an appropriate volume of ultra-pure water before LC-MS/MS analysis. To determine the Lucifer Yellow leakage after 2 hour transport period, stock solution of Lucifer yellow is prepared in ultra-pure water and diluted with HBSS (10 mM HEPES, pH 7.4) to reach the final concentration of 100 μM. 100 μL of the Lucifer yellow solution is added to each Transwell® insert (apical compartment), followed by filling the wells in the receiver plate (basolateral compartment) with 300 μL of HBSS (10 mM HEPES, pH 7.4). […]
Background: Caco-2 monolayers are a common model of the intestinal barrier.

Data on one compound can be found in patent US11970494B2, “6-heteroaryloxy benzimidazoles and azabenzimidazoles as JAK2 inhibitors” (Ajax Therapeutics, Inc., priority 2021, dated 2024).

The Papp A→B is how fast a substance crosses the layer from the apical side. Low readings indicate poor permeation, high ones ready permeation.

The structures appear in SMILES notation.

Take `Cn1c(Nc2cc3n(n2)CCCC3(F)F)nc2ncc(Oc3ccnc(NC(=O)N4CCC4)c3)c(C#N)c21` [Example I-30]: the efflux ratio at 2 h, 5 μM (pH 7.4, Caco-2, 5 μM, read-out: Efflux Ratio (ER)) was 2 to 5. Moreover, under “pH 7.4, Caco-2, apical to basolateral, 5 μM”, the Papp A→B at 2 h, 5 μM turned out to be 3 ×10⁻⁶ cm/s.
